In PubChem BioAssay (NCI):
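Each compound was tested at five concentrations against cells in 96-well plates for 48 hours. At the GI50, growth is halved. TGI: total growth inhibition.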

Key:
Assay in all cases: NCI anticancer screen, dose series, 48 h
[1] = tested on: SK-MEL-28 melanoma
[2] = tested on: SF-268 CNS
[3] = tested on: MALME-3M melanoma
[4] = tested on: SW-620 colon
[5] = tested on: OVCAR-5 ovarian
[6] = tested on: NCI-H460 lung
[7] = tested on: SF-295 CNS
[8] = tested on: A549 NSCLC
[9] = tested on: RPMI-8226 leukemia
[10] = tested on: SNB-75 CNS

Molecule `COc1c2occc2cc2ccc(=O)oc12` has a TGI [1] greater than 100 µM, a GI50 [2] greater than 100 µM and a TGI [2] greater than 100 µM. For the same molecule, the GI50 [3] was greater than 100 µM, the TGI [3] was greater than 100 µM and the TGI [4] was greater than 100 µM. It also gave a TGI [5] greater than 100 µM, a TGI [6] greater than 100 µM and a TGI [7] greater than 100 µM. The TGI [8] was greater than 100 µM, the TGI [9] was greater than 100 µM and the GI50 [10] was 55.1 µM. It also gave a TGI [10] greater than 100 µM.
With `CCOC(=O)C1=C(C)N(C2OC(COC(C)=O)C(OC(C)=O)C(OC(C)=O)C2OC(C)=O)C(=O)NC1c1ccccc1` (stereo not given) the TGI [1] was greater than 100 µM, the TGI [2] was greater than 100 µM and the TGI [3] was greater than 100 µM. It also gave a TGI [4] greater than 100 µM, a TGI [5] greater than 100 µM and a TGI [6] greater than 100 µM. The TGI [7] was greater than 100 µM, the TGI [8] was greater than 100 µM and the TGI [9] was greater than 100 µM. It also gave a TGI [10] greater than 100 µM.
`C=CCOC1OC(CS(=O)(=O)O)C(OC(C)=O)C(OC(C)=O)C1OC(C)=O` (stereo not given) gave a TGI [1] greater than 100 µM, a TGI [3] greater than 100 µM and a TGI [4] greater than 100 µM. For the same molecule, the TGI [5] was greater than 100 µM, the TGI [6] was greater than 100 µM and the TGI [7] was greater than 100 µM. It also gave a TGI [9] greater than 100 µM and a TGI [10] greater than 100 µM.
`CCCCCCCCCC[N+](C)(C)C` showed a GI50 [1] of 3.07 µM, a TGI [1] of 12.2 µM and a GI50 [2] of 1.98 µM. For the same molecule, the TGI [2] was 5.77 µM, the GI50 [3] was 2.25 µM and the TGI [3] was 8.96 µM. The GI50 [4] was 2.13 µM, the TGI [4] was 10.1 µM and the GI50 [5] was 1.05 µM. For the same molecule, the TGI [5] was 3.89 µM, the GI50 [6] was 1.73 µM and the TGI [6] was 3.84 µM. For the same molecule, the GI50 [7] was 1.97 µM, the TGI [7] was 5.81 µM and the GI50 [8] was 2.52 µM. It also gave a TGI [8] of 8.43 µM, a GI50 [9] of 0.604 µM and a TGI [9] of 2.9 µM. For the same molecule, the GI50 [10] was 1.26 µM and the TGI [10] was 3.69 µM.
Molecule `c1ccc(N2N=C3N(c4ccccc4)C2N3c2ccccc2)cc1` has a TGI [1] of 43.4 µM, a TGI [2] greater than 100 µM and a TGI [3] of 38.2 µM. It also gave a TGI [4] greater than 100 µM, a TGI [5] greater than 100 µM and a TGI [6] greater than 100 µM. It also gave a TGI [7] greater than 100 µM, a TGI [8] greater than 100 µM and a TGI [9] of 48.7 µM. For the same molecule, the TGI [10] was 64.5 µM.
`COc1ccc(OCC(C)(C)O)cc1` showed a TGI [1] greater than 100 µM, a TGI [2] greater than 100 µM and a TGI [3] greater than 100 µM. The TGI [4] was greater than 100 µM, the TGI [5] was greater than 100 µM and the TGI [6] was greater than 100 µM. It also gave a TGI [7] greater than 100 µM, a TGI [8] greater than 100 µM and a TGI [9] greater than 100 µM. It also gave a TGI [10] greater than 86.9 µM.
Molecule `CC(=O)OCc1nnn2c1CCC2` has a TGI [1] greater than 100 µM, a TGI [3] greater than 100 µM and a TGI [4] greater than 100 µM. It also gave a TGI [5] greater than 100 µM, a TGI [6] greater than 100 µM and a TGI [7] greater than 100 µM. The TGI [8] was greater than 100 µM and the TGI [10] was greater than 100 µM.
`CCCCn1c(C)c2c(c1C)C(=O)N(CCN1CCN(c3ccccc3Cl)CC1)C2=O` was tested, and the TGI [2] was 32.4 µM, the TGI [3] was 50.2 µM and the TGI [4] was greater than 100 µM. The TGI [5] was greater than 100 µM, the TGI [6] was greater than 100 µM and the TGI [7] was greater than 100 µM. The TGI [8] was greater than 100 µM, the TGI [9] was 55.1 µM and the TGI [10] was 90.2 µM.
`CCCCCCC(=O)c1ccc2ccccc2c1O` gave a TGI [1] greater than 100 µM, a TGI [2] greater than 100 µM and a TGI [4] greater than 100 µM. For the same molecule, the TGI [6] was greater than 100 µM, the TGI [7] was greater than 100 µM and the TGI [9] was greater than 100 µM. For the same molecule, the TGI [10] was greater than 100 µM.
For `CCOC(=O)/C=C/c1c[nH]c(=O)[nH]c1=O`, the TGI [1] was greater than 75 µM, the TGI [2] was greater than 75 µM and the TGI [3] was greater than 75 µM. The TGI [4] was greater than 75 µM, the TGI [5] was greater than 75 µM and the TGI [6] was greater than 75 µM. For the same molecule, the TGI [7] was greater than 75 µM, the TGI [8] was greater than 75 µM and the TGI [9] was greater than 57 µM. For the same molecule, the TGI [10] was greater than 75 µM.
Molecule `COc1ccc(-c2c3c(nc4[nH]c(=S)[nH]c(=S)c24)CCCC3)cc1OC` has a TGI [1] of 70.7 µM, a TGI [2] greater than 100 µM and a TGI [3] greater than 100 µM. For the same molecule, the TGI [4] was greater than 100 µM, the TGI [5] was greater than 100 µM and the TGI [6] was 42.9 µM. For the same molecule, the TGI [7] was 38.8 µM, the TGI [8] was 59 µM and the TGI [9] was greater than 100 µM. It also gave a TGI [10] of 51.2 µM.
